Measured values as given in US10611760B2, “Therapeutic compounds as inhibitors of the orexin-1 receptor” (C4X Discovery Limited, priority 2014, dated 2020).

Assays:
hOX1R = molecular target: T1, hOX1R (Homo sapiens, UniProt O43613); assay: Intracellular calcium measurements using division-arrested cells, OX1; assay type: cell-based; details: agonist orexin A at 2×EC50, * = single experiment, otherwise average of at least two, read-out: pIC50 OX1 (converted)
T1 sequence (O43613 1-425): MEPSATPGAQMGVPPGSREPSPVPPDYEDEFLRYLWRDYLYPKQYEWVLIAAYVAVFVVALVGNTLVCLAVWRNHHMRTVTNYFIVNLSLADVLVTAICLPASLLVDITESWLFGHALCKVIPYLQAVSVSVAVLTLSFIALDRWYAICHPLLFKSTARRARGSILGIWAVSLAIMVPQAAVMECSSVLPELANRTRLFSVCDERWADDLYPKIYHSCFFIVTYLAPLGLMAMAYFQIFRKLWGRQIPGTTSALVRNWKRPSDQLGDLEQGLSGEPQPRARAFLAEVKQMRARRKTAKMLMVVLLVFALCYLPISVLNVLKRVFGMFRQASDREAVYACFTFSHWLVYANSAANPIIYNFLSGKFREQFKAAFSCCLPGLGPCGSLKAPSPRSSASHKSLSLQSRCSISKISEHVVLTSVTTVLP
Protocol: (§1) Intracellular Calcium Measurements Using Division-arrested Cells (Table 1):
(§2) Test compounds are prepared as 10 mM stock solutions in DMSO, then serially diluted in half log concentrations with DMSO followed by dilution with assay buffer (HBSS (Sigma-Aldrich, H8264) containing 20 mM HEPES (Sigma-Aldrich, H4034), 0.1% (w/v) bovine serum albumin and adjusted to pH 7.4) to a top final assay concentration of 10 μM.
(§3) Human OX1 (CT-A474) and human OX2 (CT-A475) receptor-expressing division-arrested cells are plated into 384 well black, clear bottom, cell-bind plates at a seeding density of 10,000 cells/50 μL growth media. The seeded plates are incubated at 37° C. in air supplemented with 5% CO2 for 16 hrs.
(§4) The media is removed and replaced with 30 μL/well of cell loading buffer (a vial of Calcium 5 is solubilized in 22 mL of assay buffer to which a freshly prepared 250 mM solution of probenecid in 1:1 1M NaOH to assay buffer (200 μL) is added) and the cells incubated for 1 hr at 37° C. The serially diluted test compounds (10 μL/well) are added to the plate, which is then incubated for 10 mins and placed in a FlexStation III reader.

hOX2R = molecular target: T2, hOX2R (Homo sapiens, UniProt O43614); assay: Intracellular calcium measurements using division-arrested cells, OX2; assay type: cell-based; details: agonist orexin B at 2×EC50, * = single experiment, otherwise average of at least two, read-out: pIC50 OX2 (converted)
T2 sequence (O43614 1-444): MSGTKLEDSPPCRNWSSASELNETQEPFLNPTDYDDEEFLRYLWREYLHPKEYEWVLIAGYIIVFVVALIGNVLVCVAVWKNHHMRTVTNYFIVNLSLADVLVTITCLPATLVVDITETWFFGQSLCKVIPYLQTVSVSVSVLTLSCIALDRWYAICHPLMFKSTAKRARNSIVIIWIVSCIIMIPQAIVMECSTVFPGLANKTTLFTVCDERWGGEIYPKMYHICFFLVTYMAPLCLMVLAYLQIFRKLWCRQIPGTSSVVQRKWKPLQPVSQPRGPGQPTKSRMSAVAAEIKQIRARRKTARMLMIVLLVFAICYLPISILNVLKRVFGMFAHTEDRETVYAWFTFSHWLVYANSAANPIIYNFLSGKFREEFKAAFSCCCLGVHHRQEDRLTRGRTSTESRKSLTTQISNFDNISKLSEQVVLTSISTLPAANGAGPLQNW
Protocol: as §1, §2, §3, §4

IC50 (hOX1R) [nM] | IC50 (hOX2R) [nM] | SMILES
39.8 | 2000 | CC[C@@H](CNc1ccc(Cl)cn1)NC(=O)c1cc(C)ccc1-n1nccn1 [Example 2, (S)—N-(1-((5-chloropyridin-2-yl)amino)butan-2-yl)-5-methyl-2-(2H-1,2,3-triazol-2-yl)benzamide]
20 | 1000 | CC[C@@H](CNc1ccc(Cl)cn1)N(C)C(=O)c1ccccc1-c1ccccc1 [Example 3, (S)—N-(1-((5-chloropyridin-2-yl)amino)butan-2-yl)-N-methyl-[1,1′-biphenyl]-2-carboxamide]
158 | > 10000 | CC(C)[C@@H](CNc1ccc(Cl)cn1)NC(=O)c1ccccc1-c1ccccc1 [Example 4, (S)—N-(1-((5-chloropyridin-2-yl)amino)-3-methylbutan-2-yl)-[1,1′-biphenyl]-2-carboxamide]
1000 | > 10000 | CC(C)C[C@@H](CNc1ccc(Cl)cn1)NC(=O)c1ccccc1-c1ccccc1 [Example 5, (S)—N-(1-((5-chloropyridin-2-yl)amino)-4-methylpentan-2-yl)-[1,1′-biphenyl]-2-carboxamide]
1580 | – | Cc1nc(-c2ccccc2)c(C(=O)N[C@H](CNc2ccc(Cl)cn2)CC(C)C)s1 [Example 7, (S)—N-(1-((5-chloropyridin-2-yl)amino)-4-methylpentan-2-yl)-2-methyl-4-phenylthiazole-5-carboxamide]
794 | > 10000 | CC(C)C[C@@H](CNc1ccc(Cl)cn1)N(C)C(=O)c1ccccc1-c1ccccc1 [Example 8, (S)—N-(1-((5-chloropyridin-2-yl)amino)-4-methylpentan-2-yl)-N-methyl-[1,1′-biphenyl]-2-carboxamide]
79.4 | > 7940 | Cc1nc(-c2ccccc2)c(C(=O)N(C)[C@H](CNc2ccc(Cl)cn2)C(C)C)s1 [Example 11, (S)—N-(1-((5-chloropyridin-2-yl)amino)-3-methylbutan-2-yl)-N,2-dimethyl-4-phenylthiazole-5-carboxamide]
1000 | > 10000 | CN(C(=O)c1ccccc1-c1ccccc1)[C@H](CNc1ccc(Cl)cn1)C(C)(C)C [Example 12, (S)—N-(1-((5-chloropyridin-2-yl)amino)-3,3-dimethylbutan-2-yl)-N-methyl-[1,1′-biphenyl]-2-carboxamide]
39.8 | 2510 | CN(C(=O)c1ccccc1-c1ccccc1)[C@H](CNc1ccc(Cl)cn1)C1CC1 [Example 13, (S)—N-(2-((5-chloropyridin-2-yl)amino)-1-cyclopropylethyl)-N-methyl-[1,1′-biphenyl]-2-carboxamide]
– | > 10000 | CC(C)[C@@H](CNc1ccc(Cl)cn1)N(C(=O)c1ccccc1-c1ccccc1)C1CC1 [Example 15, (S)—N-(1-((5-chloropyridin-2-yl)amino)-3-methylbutan-2-yl)-N-cyclopropyl-[1,1′-biphenyl]-2-carboxamide]
12.6 | 1260 | CC[C@@H](CNc1ccc(Cl)cn1)N(C)C(=O)c1cc(Cl)ccc1-n1nccn1 [Example 16, (S)-5-chloro-N-(1-((5-chloropyridin-2-yl)amino)butan-2-yl)-N-methyl-2-(2H-1,2,3-triazol-2-yl)benzamide]
200 | – | CC[C@@H](CNc1ccc(Cl)cn1)N(C)C(=O)c1cc(C(F)(F)F)ccc1-n1nccn1 [Example 17, (S)—N-(1-((5-chloropyridin-2-yl)amino)butan-2-yl)-N-methyl-2-(2H-1,2,3-triazol-2-yl)-5-(trifluoromethyl)benzamide]
79.4 | > 10000 | CC[C@@H](CNc1ccc(Cl)cn1)N(C)C(=O)c1cc(F)ccc1-n1nccn1 [Example 18, (S)—N-(1-((5-chloropyridin-2-yl)amino)butan-2-yl)-5-fluoro-N-methyl-2-(2H-1,2,3-triazol-2-yl)benzamide]
7.94 | – | CC[C@@H](CNc1ccc(Cl)cn1)N(C)C(=O)c1nc(C)ccc1-n1nccn1 [Example 21, (S)—N-(1-((5-chloropyridin-2-yl)amino)butan-2-yl)-N,6-dimethyl-3-(2H-1,2,3-triazol-2-yl)picolinamide]
– | > 10000 | CC[C@@H](CNc1ccc(Cl)cn1)N(C)C(=O)c1cc(C)ccc1N1CCOCC1 [Example 22, (S)—N-(1-((5-chloropyridin-2-yl)amino)butan-2-yl)-N,5-dimethyl-2-morpholinobenzamide]
1580 | – | CC(C)[C@@H](COCc1ccc(F)cc1)N(C)C(=O)c1ccccc1-c1ccccc1 [Example 29, (S)—N-(1-((4-fluorobenzyl)oxy)-3-methylbutan-2-yl)-N-methyl-[1,1′-biphenyl]-2-carboxamide]
200 | – | CC(C)[C@@H](COc1ncc2ccccc2n1)N(C)C(=O)c1ccccc1-c1ccccc1 [Example 31, (S)—N-methyl-N-(3-methyl-1-(quinazolin-2-yloxy)butan-2-yl)-[1,1′-biphenyl]-2-carboxamide]
200 | – | CC(C)[C@@H](COc1nccc(-c2ccccc2)n1)N(C)C(=O)c1ccccc1-c1ccccc1 [Example 32, (S)—N-methyl-N-(3-methyl-1-((4-phenylpyrimidin-2-yl)oxy)butan-2-yl)-[1,1′-biphenyl]-2-carboxamide]
100 | – | CC(C)[C@@H](COc1nc2ccccc2n1C)N(C)C(=O)c1ccccc1-c1ccccc1 [Example 33, (S)—N-methyl-N-(3-methyl-1-((1-methyl-1H-benzo[d]imidazol-2-yl)oxy)butan-2-yl)-[1,1′-biphenyl]-2-carboxamide]
63.1 | – | CC(C)[C@@H](CNc1ncc2ccccc2n1)N(C)C(=O)c1ccccc1-c1ccccc1 [Example 36, (S)—N-methyl-N-(3-methyl-1-(quinazolin-2-ylamino)butan-2-yl)-[1,1′-biphenyl]-2-carboxamide]
79.4 | – | Cc1cc(C)nc(NC[C@H](C(C)C)N(C)C(=O)c2ccccc2-c2ccccc2)n1 [Example 37, (S)—N-(1-((4,6-dimethylpyrimidin-2-yl)amino)-3-methylbutan-2-yl)-N-methyl-[1,1′-biphenyl]-2-carboxamide]
– | 1000 | CC[C@@H](CNc1ccc(C(F)(F)F)cn1)N(C)C(=O)c1cc(Cl)ccc1-n1nccn1 [Example 42, (S)-5-chloro-N-methyl-2-(2H-1,2,3-triazol-2-yl)-N-(1-((5-(trifluoromethyl)pyridin-2-yl)amino)butan-2-yl)benzamide]
631 | – | CC(C)[C@@H](CNc1ccc(Cl)cn1)N(C)C(=O)c1cn(C)c2ccccc12 [Example 50, (S)—N-(1-((5-chloropyridin-2-yl)amino)-3-methylbutan-2-yl)-N,1-dimethyl-1H-indole-3-carboxamide]
251 | – | CC[C@@H](CNc1cccc(C)n1)N(C)C(=O)c1cc(Cl)ccc1-n1nccn1 [Example 53, (S)-5-chloro-N-methyl-N-(1-((6-methylpyridin-2-yl)amino)butan-2-yl)-2-(2H-1,2,3-triazol-2-yl)benzamide]
79.4 | – | CC[C@@H](CNc1ccc(C(F)(F)F)nc1)N(C)C(=O)c1nc(C)ccc1-n1nccn1 [Example 55, (S)—N,6-dimethyl-3-(2H-1,2,3-triazol-2-yl)-N-(1-((6-(trifluoromethyl)pyridin-3-yl)amino)butan-2-yl)picolinamide]
